Experiment [1] relates to Staphylococcus aureus. In words: Antibacterial activity against methicillin-sensitive Staphylococcus aureus CCARM3519 after 24 hrs. The format is functional.
In experiment [2] the test system is Staphylococcus aureus. Put plainly: Antibacterial activity against Staphylococcus aureus 503 after 24 hrs. The format is functional.
Experiment [3] deals with Staphylococcus aureus. Put plainly: Antibacterial activity against methicillin-resistant Staphylococcus aureus CCARM3506 after 24 hrs. The format is functional.
Experiment [4] concerns Staphylococcus aureus. In words: Antibacterial activity against methicillin-resistant Staphylococcus aureus CCARM3167 after 24 hrs. The format is functional.
In experiment [5] the test system is Staphylococcus aureus. In words: Antibacterial activity against methicillin-sensitive Staphylococcus aureus CCARM3505 after 24 hrs. The format is functional.
Experiment [6] concerns Staphylococcus aureus. Put plainly: Antibacterial activity against Staphylococcus aureus RN4220 after 24 hrs. The format is functional. The note with it: RN4220, 24 h.
Experiment [7] concerns Staphylococcus aureus. In words: Antibacterial activity against methicillin-sensitive Staphylococcus aureus CCARM3519 up to 100 ug/mL after 24 hrs. The format is functional, organism-based.
In experiment [8] the test system is Staphylococcus aureus. Put plainly: Antibacterial activity against methicillin-resistant Staphylococcus aureus CCARM3506 up to 100 ug/mL after 24 hrs. The format is functional, organism-based.
Experiment [9] concerns Staphylococcus aureus. In words: Antibacterial activity against Staphylococcus aureus 503 up to 100 ug/mL after 24 hrs. The format is functional, organism-based.
Experiment [10] relates to Staphylococcus aureus. Put plainly: Antibacterial activity against methicillin-sensitive Staphylococcus aureus CCARM3505 up to 100 ug/mL after 24 hrs. The format is functional, organism-based.
Experiment [11] has as its system Staphylococcus aureus. In words: Antibacterial activity against methicillin-resistant Staphylococcus aureus CCARM3167 up to 100 ug/mL after 24 hrs. The format is functional, organism-based.
The test system of experiment [12] is Staphylococcus aureus. Put plainly: Antibacterial activity against Staphylococcus aureus RN4220 up to 100 ug/mL after 24 hrs. The format is functional, organism-based.

What is called MIC is the least concentration at which growth counts as inhibited. A low value points to a more susceptible organism.

Structures are written as SMILES. Values after ≈ are worked out from the molar mass of the structure shown. Active and inactive are the calls of the source. The calls are words filed in the database; no cut-off is given here.

As to `CN1C(=O)[C@]23SS[C@H]1C(=O)N2[C@H]1Nc2ccccc2[C@@]1(c1c[nH]c2ccccc12)[C@@H]3O` [BIONECTIN A], the MIC in the experiment with Staphylococcus aureus [1] is 10 µg/mL (≈ 22.2 µM); in the experiment with Staphylococcus aureus [2], 10 µg/mL (≈ 22.2 µM); against Staphylococcus aureus [3], 30 µg/mL (≈ 66.6 µM); with Staphylococcus aureus [4] it was 30 µg/mL (≈ 66.6 µM); in the experiment with Staphylococcus aureus [5], 10 µg/mL (≈ 22.2 µM); with Staphylococcus aureus [6] it was 10 µg/mL (≈ 22.2 µM).
Turning to `CS[C@H]1C(=O)N2[C@H]3Nc4ccccc4[C@@]3(c3c[nH]c4ccccc34)[C@H](O)[C@]2(SC)C(=O)N1C`, the outcome in the experiment on Staphylococcus aureus [7], with Staphylococcus aureus [8], in the experiment with Staphylococcus aureus [9], with Staphylococcus aureus [10], with Staphylococcus aureus [11] and with Staphylococcus aureus [12] was inactive.
With `CC(O)[C@@]12SS[C@]3(C(=O)N1C)[C@@H](O)[C@]1(c4c[nH]c5ccccc45)c4ccccc4N[C@@H]1N3C2=O` (stereo not given in full) [BIONECTIN B], the minimal inhibitory concentration (MIC) worked out at 30 µg/mL (≈ 60.7 µM) with Staphylococcus aureus [1]; 30 µg/mL (≈ 60.7 µM) against Staphylococcus aureus [2]; 10 µg/mL (≈ 20.2 µM) against Staphylococcus aureus [3]; 10 µg/mL (≈ 20.2 µM) in the experiment with Staphylococcus aureus [4]; 30 µg/mL (≈ 60.7 µM) in the experiment with Staphylococcus aureus [5]; 30 µg/mL (≈ 60.7 µM) in the experiment on Staphylococcus aureus [6].
Turning to `CC(O)[C@@]12SS[C@]3(C(=O)N1C)[C@@H](O)C1([C@@]45c6ccccc6N[C@@H]4N4C(=O)[C@]6(C(C)O)SS[C@]4(C(=O)N6C)[C@H]5O)c4ccccc4N[C@@H]1N3C2=O` (stereo not given in full) [VERTICILLIN D], the minimal inhibitory concentration (MIC) with Staphylococcus aureus [1] was 10 µg/mL (≈ 13.2 µM); in the experiment with Staphylococcus aureus [2], 3 µg/mL (≈ 3.96 µM); in the experiment with Staphylococcus aureus [3], 3 µg/mL (≈ 3.96 µM); in the experiment with Staphylococcus aureus [4] it was 3 µg/mL (≈ 3.96 µM); with Staphylococcus aureus [5], 10 µg/mL (≈ 13.2 µM); in the experiment with Staphylococcus aureus [6], 3 µg/mL (≈ 3.96 µM).
On to `CN[C@H](CC(C)C)C(=O)N[C@H]1C(=O)N[C@@H](CC(N)=O)C(=O)N[C@H]2C(=O)N[C@H]3C(=O)N[C@H](C(=O)N[C@H](C(=O)O)c4cc(O)cc(O)c4-c4cc3ccc4O)[C@H](O)c3ccc(c(Cl)c3)Oc3cc2cc(c3O[C@@H]2O[C@H](CO)[C@@H](O)[C@H](O)[C@H]2O[C@H]2C[C@](C)(N)[C@H](O)[C@H](C)O2)Oc2ccc(cc2Cl)[C@H]1O` [VANCOMYCIN], for which the MIC in the experiment on Staphylococcus aureus [2] was determined as 0.25 µg/mL (≈ 0.173 µM).

The values are drawn from ChEMBL document CHEMBL1158142, “Bionectins A-C, epidithiodioxopiperazines with anti-MRSA activity, from Bionectra byssicola F120” (2006).
